Data on 13 compounds can be found in patent US20240025863A1, “SOS1 PROTEIN DEGRADERS, PHARMACEUTICAL COMPOSITIONS THEREOF, AND THEIR THERAPEUTIC APPLICATIONS” (BioTheryX, Inc., priority 2020, published 2024).

The structures appear in SMILES notation. Some results are limits rather than exact numbers.

Holding throughout (assay type): cell-based
For one experiment, the system named is H358 cells (G12C). The experiment is described as follows: Cell viability assay (CellTiter-Glo), H358 cells. The conditions noted are these: Homo sapiens, NCI-H358, 72 h; H358 cells, 3 days incubation, CellTiter-Glo luminescence; read-out: Inhibition of Cancerous Cells IC50 H358 (G12C). In a few lines:
(§1)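 Seeding used reduced-serum (2.5% FBS) medium, RPMI 1640 for H358 and SW48 and DMEM for Lovo and SW480. Compound or DMSO was applied for 3 days at 37 °C; CellTiter-Glo was added and luminescence recorded after 10 min shaking.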

A further experiment has as its system H23 cells. Briefly: Cell viability assay (CellTiter-Glo), H23 cells. The conditions noted are these: Homo sapiens, NCI-H23, 72 h; H23 cells, 3 days incubation, CellTiter-Glo luminescence; read-out: Inhibition of Cancerous Cells IC50 H23. The method, then:
(§2) H358, H23, SW48, and AsPC-1 cells were cultured in RPMI 1640 media supplemented with 10% fetal bovine serum, streptomycin, and penicillin. Lovo and SW480 cells were cultured in DMEM media supplemented with 10% fetal bovine serum, streptomycin, and penicillin. The cell lines were plated in their respective medium supplemented with 2.5% fetal bovine serum, streptomycin, and penicillin. All cell lines were plated in white walled 96-well plates at 2,000 cells/well or 384-well plates at 500 cells/well, except Lovo, which were plated at 4,000 or 1,000 cells/well, respectively. The cells were incubated in DMSO (control) or a compound for 3 days at 37° C. under 5% CO2. A CELLTITER-GLO® reagent (100 μL) was then added to each well. After a 10 min incubation with shaking, luminescence was measured using an ENVISION® multimode plate reader.

A further experiment has as its system Lovo cells (G13D). The experiment is described as follows: Cell viability assay (CellTiter-Glo), Lovo cells. The conditions noted are these: Homo sapiens, 72 h; Lovo cells, 3 days incubation, CellTiter-Glo luminescence; read-out: Inhibition of Cancerous Cells IC50 Lovo (G13D). In short, it runs like this:
as §1

A further experiment relates to SW48 cells (wt). Briefly: Cell viability assay (CellTiter-Glo), SW48 cells. As to conditions: Homo sapiens, 72 h; SW48 cells, 3 days incubation, CellTiter-Glo luminescence; read-out: Inhibition of Cancerous Cells IC50 SW48 (wt). In a few lines: as §1
The next experiment deals with AsPC-1 cells (G12D). The experiment is described as follows: Cell viability assay (CellTiter-Glo), AsPC-1 cells. The conditions noted are these: Homo sapiens, ASPC1, 72 h, 3 days incubation, CellTiter-Glo luminescence, read-out: Inhibition of Cancerous Cells IC50 AsPC-1 (G12D). The method, then:
as §2

In the next experiment the test system is SW480 cells (G12V). Briefly: Cell viability assay (CellTiter-Glo), SW480 cells. The conditions noted are these: Homo sapiens, 72 h; SW480 cells, 3 days incubation, CellTiter-Glo luminescence; read-out: Inhibition of Cancerous Cells IC50 SW480 (G12V). In a few lines:
as §1

With `COc1cc2nc(C)nc(N[C@H](C)c3cccc(Br)c3)c2cc1OCCCCCCCN1CCC(c2cc(F)cc3c2CN(C2CCC(=O)NC2=O)C3=O)CC1` (stereo partly drawn) [Compound A19, 3-(4-(1-(7-((4-(((R)-1-(3-Bromophenyl)ethyl)amino)-7-methoxy-2-methyl-quinazolin-6-yl)oxy)heptyl)piperidin-4-yl)-6-fluoro-1-oxoisoindolin-2-yl)piperidine-2,6-dione], the IC50 with H358 cells (G12C) is 1700 nM; with H23 cells, 1900 nM.
The like results for `COc1cc2c(N[C@H](C)c3cccc(Br)c3)nc(C)nc2cc1OCCCCCCCCCN1CCC(c2cc(F)cc3c2CN(C2CCC(=O)NC2=O)C3=O)CC1` (stereo partly drawn) [Compound A12, 3-(4-(1-(9-((4-(((R)-1-(3-Bromophenyl)ethyl)amino)-6-methoxy-2-methyl-quinazolin-7-yl)oxy)nonyl)piperidin-4-yl)-6-fluoro-1-oxoisoindolin-2-yl)piperidine-2,6-dione] were, in that order, 1400 nM and 1200 nM.
The like results for `COc1cc2c(N[C@@H](C)c3cccs3)nc(C)nc2cc1OCCCCCCCCC(=O)N[C@H](C(=O)N1C[C@H](O)C[C@H]1C(=O)NCc1ccc(-c2scnc2C)cc1)C(C)(C)C` [Compound D6, (2S,4R)-4-Hydroxy-1-((S)-2-(9-((6-methoxy-2-methyl-4-(((S)-1-(thiophen-2-yl)ethyl)amino)quinazolin-7-yl)oxy)nonanamido)-3,3-dimethylbutanoyl)-N-(4-(4-methylthiazol-5-yl)benzyl)pyrrolidine-2-carboxamide] were, in that order, 6100 nM and 2700 nM.
In the same order, the values of `COc1cc2c(N[C@H](C)c3cccc(Br)c3)nc(C)nc2cc1OCCOCCOCCNc1cccc2c1C(=O)N(C1CCC(=O)NC1=O)C2=O` (stereo partly drawn) [Compound A36, 4-((2-(2-(2-((4-(((R)-1-(3-Bromophenyl)ethyl)amino)-6-methoxy-2-methyl-quinazolin-7-yl)oxy)ethoxy)ethoxy)ethyl)amino)-2-(2,6-dioxopiperidin-3-yl)isoindoline-1,3-dione] are 8800 nM and 8300 nM.
As to `COc1cc2c(N[C@H](C)c3cccc(Br)c3)nc(C)nc2cc1OCCCCCCCCC(=O)N[C@H](C(=O)N1C[C@H](O)C[C@H]1C(=O)NCc1ccc(-c2scnc2C)cc1)C(C)(C)C` [Compound D2, (2S,4R)-1-((S)-2-(9-((4-(((R)-1-(3-bromophenyl)ethyl)amino)-6-methoxy-2-methylquinazolin-7-yl)oxy)nonanamido)-3,3-dimethylbutanoyl)-4-hydroxy-N-(4-(4-methylthiazol-5-yl)benzyl)pyrrolidine-2-carboxamide], the IC50 in the experiment with H358 cells (G12C) is 15000 nM; in the experiment on H23 cells it was 13000 nM.
As for `CN[C@@H](C)C(=O)N[C@H](C(=O)N1CCC[C@H]1c1nc(C(=O)c2cccc(OCCCCCCCCCCOc3cc4nc(C)nc(N[C@H](C)c5cccc(Br)c5)c4cc3OC)c2)cs1)C1CCCCC1` [Compound B3, (S)—N—((S)-2-((S)-2-(4-(3-((10-((4-(((R)-1-(3-Bromophenyl)ethyl)amino)-6-methoxy-2-methylquinazolin-7-yl)oxy)decyl)oxy)benzoyl)thiazol-2-yl)pyrrolidin-1-yl)-1-cyclohexyl-2-oxoethyl)-2-(methylamino)propanamide], the half-maximal inhibitory concentration (IC50) with H358 cells (G12C) was 2200 nM; in the experiment on Lovo cells (G13D) it was 1400 nM; in the experiment on SW48 cells (wt) it was 4700 nM; in the experiment on AsPC-1 cells (G12D) it was 5000 nM; with SW480 cells (G12V), 2300 nM.
On to `COc1cc2c(N[C@H](C)c3cccc(Br)c3)nc(C)nc2cc1OCCCCCCCCCCCCc1scc2c1CN(C1CCC(=O)NC1=O)C2=O` (stereo partly drawn) [Compound A64, 3-(1-(12-((4-(((R)-1-(3-Bromophenyl)ethyl)amino)-6-methoxy-2-methyl-quinazolin-7-yl)oxy)dodecyl)-4-oxo-4H-thieno[3,4-c]pyrrol-5(6H)-yl)piperidine-2,6-dione], for which the IC50 was over 10000 nM in the experiment on H358 cells (G12C); 2600 nM with Lovo cells (G13D); 1200 nM in the experiment with SW48 cells (wt); 5500 nM with AsPC-1 cells (G12D); 3100 nM in the experiment on SW480 cells (G12V).
The like results for `COc1cc2c(N[C@H](C)c3cccc(Br)c3)nc(C)nc2cc1OCCCCCCCCNC(=O)[C@H](CC(C)C)NC(=O)[C@@H](O)[C@H](N)Cc1ccccc1` [Compound B7, (S)-2-((2S,3R)-3-Amino-2-hydroxy-4-phenylbutanamido)-N-(8-((4-(((R)-1-(3-bromophenyl)ethyl)amino)-6-methoxy-2-methylquinazolin-7-yl)oxy)octyl)-4-methylpentanamide] were, in that order, 1300 nM, 680 nM, 920 nM, 1200 nM and 610 nM.
The like results for `CN[C@@H](C)C(=O)N[C@H](C(=O)N1C[C@@H](NC(=O)CCCCCCCCOc2cc3nc(C)nc(N[C@H](C)c4cccc(Br)c4)c3cc2OC)C[C@H]1C(=O)N[C@@H]1CCCc2ccccc21)C1CCCCC1` [Compound B12, (2S,4S)-4-(9-((4-(((R)-1-(3-Bromophenyl)ethyl)amino)-6-methoxy-2-methyl-quinazolin-7-yl)oxy)nonanamido)-1-((S)-2-cyclohexyl-2-((S)-2-(methylamino)propanamido)-acetyl)-N—((R)-1,2,3,4-tetrahydronaphthalen-1-yl)pyrrolidine-2-carboxamide] were, in that order, 1100 nM, 800 nM, 460 nM, 2700 nM and 450 nM.
In the same order, the values of `COc1cc2c(N[C@H](C)c3cccc(Br)c3)nc(C)nc2cc1OCCCCCN1CCN(C(=O)CNc2cc3c(cc2F)C(=O)N(C2CCC(=O)NC2=O)C3)CC1` (stereo partly drawn) [Compound A32, 3-(5-((2-(4-(5-((4-(((R)-1-(3-Bromophenyl)ethyl)amino)-6-methoxy-2-methyl-quinazolin-7-yl)oxy)pentyl)piperazin-1-yl)-2-oxoethyl)amino)-6-fluoro-1-oxoisoindolin-2-yl)-piperidine-2,6-dione] are over 10000 nM, 60 nM, 470 nM, over 10000 nM and 4400 nM.
As to `CN[C@@H](C)C(=O)N[C@H](C(=O)N1C[C@@H](NC(=O)CCCCCCCCCCCCOc2cc3nc(C)nc(N[C@H](C)c4cccc(Br)c4)c3cc2OC)C[C@H]1C(=O)N[C@@H]1CCCc2ccccc21)C1CCCCC1` [Compound B10, (2S,4S)-4-(13-((4-(((R)-1-(3-Bromophenyl)ethyl)amino)-6-methoxy-2-methyl-quinazolin-7-yl)oxy)tridecanamido)-1-((S)-2-cyclohexyl-2-((S)-2-(methylamino)propanamido)-acetyl)-N—((R)-1,2,3,4-tetrahydronaphthalen-1-yl)pyrrolidine-2-carboxamide], the IC50 turned out to be 1600 nM with H358 cells (G12C); 670 nM with Lovo cells (G13D); 1300 nM in the experiment on SW48 cells (wt); 1500 nM with AsPC-1 cells (G12D); 720 nM with SW480 cells (G12V).
In the same order, the values of `COc1cc2c(N[C@H](C)c3cccc(Br)c3)nc(C)nc2cc1OCCCCCCN1CCN(CCCc2cc3c(cc2F)C(=O)N(C2CCC(=O)NC2=O)C3)CC1` (stereo partly drawn) [Compound A42, 3-(5-(3-(4-(6-((4-(((R)-1-(3-Bromophenyl)ethyl)amino)-6-methoxy-2-methyl-quinazolin-7-yl)oxy)hexyl)piperazin-1-yl)propyl)-6-fluoro-1-oxoisoindolin-2-yl)piperidine-2,6-dione] are 890 nM, 520 nM, 1000 nM, 1400 nM and 480 nM.
The like results for `CN[C@@H](C)C(=O)N[C@H](C(=O)N1CCC[C@H]1c1nc(C(=O)c2cccc(OCCCCCCCCCCCCOc3cc4nc(C)nc(N[C@H](C)c5cccc(Br)c5)c4cc3OC)c2)cs1)C1CCCCC1` [Compound B4, (S)—N—((S)-2-((S)-2-(4-(3-((12-((4-(((R)-1-(3-Bromophenyl)ethyl)amino)-6-methoxy-2-methylquinazolin-7-yl)oxy)dodecyl)oxy)benzoyl)thiazol-2-yl)pyrrolidin-1-yl)-1-cyclohexyl-2-oxoethyl)-2-(methylamino)propanamide] were, in that order, 7600 nM, 4000 nM, over 10000 nM, over 10000 nM and over 10000 nM.
